Reference: patent US8569499B2, “Process for making trans-1-((1R,3S)-6-chloro-3-phenylindan-1-yl)-3,3-dimethylpiperazine” (H. Lundbeck A/S, priority 2005, dated 2013)

Assays:
[1] = molecular target: serotonin 5-HT2a receptors (Homo sapiens, UniProt P28223); conditions: as described in PCT/DK04/000546; cited from earlier work
[2] = molecular target: dopamine D2 receptors (Homo sapiens, UniProt P14416); conditions: as described in PCT/DK04/000546; cited from earlier work
[3] = molecular target: dopamine D1 receptors (Homo sapiens, UniProt P21728); conditions: as described in PCT/DK04/000546; cited from earlier work
dopamine D1 receptors, sequence (P21728 whole entry): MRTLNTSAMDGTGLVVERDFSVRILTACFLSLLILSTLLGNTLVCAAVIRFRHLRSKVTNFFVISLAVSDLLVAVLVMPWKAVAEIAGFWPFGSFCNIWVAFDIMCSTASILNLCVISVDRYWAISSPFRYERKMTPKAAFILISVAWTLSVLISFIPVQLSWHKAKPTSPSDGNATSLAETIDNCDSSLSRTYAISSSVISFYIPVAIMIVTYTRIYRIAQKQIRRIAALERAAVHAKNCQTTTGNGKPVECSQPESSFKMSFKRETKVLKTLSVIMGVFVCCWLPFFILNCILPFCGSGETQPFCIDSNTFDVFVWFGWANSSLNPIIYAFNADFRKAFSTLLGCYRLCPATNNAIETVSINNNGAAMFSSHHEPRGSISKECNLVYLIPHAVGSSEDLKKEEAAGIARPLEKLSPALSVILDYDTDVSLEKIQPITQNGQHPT

[4] = molecular target: CYP2D6 (Homo sapiens, UniProt P10635); conditions: as described in PCT/DK04/000546; cited from earlier work
CYP2D6, sequence (P10635 whole entry): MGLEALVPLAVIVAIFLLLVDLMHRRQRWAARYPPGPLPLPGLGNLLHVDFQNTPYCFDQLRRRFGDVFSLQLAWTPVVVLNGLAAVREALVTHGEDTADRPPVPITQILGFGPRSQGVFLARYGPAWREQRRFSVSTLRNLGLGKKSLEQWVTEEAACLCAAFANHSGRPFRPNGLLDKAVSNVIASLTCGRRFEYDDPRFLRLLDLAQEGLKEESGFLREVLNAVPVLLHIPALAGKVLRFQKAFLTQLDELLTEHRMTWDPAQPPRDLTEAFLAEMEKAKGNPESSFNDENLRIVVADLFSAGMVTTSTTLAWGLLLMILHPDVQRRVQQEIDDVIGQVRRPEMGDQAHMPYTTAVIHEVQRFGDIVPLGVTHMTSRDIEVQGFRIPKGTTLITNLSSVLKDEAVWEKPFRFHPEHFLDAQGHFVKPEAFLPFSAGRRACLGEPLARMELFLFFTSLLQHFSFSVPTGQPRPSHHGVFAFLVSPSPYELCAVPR

[5] = system: rabbit model; conditions: as described in PCT/DK04/000546; cited from earlier work
[6] = molecular target: dopamine (DA) D1 receptors (Homo sapiens, UniProt P21728); conditions: as described in PCT/DK04/000546; cited from earlier work
dopamine (DA) D1 receptors, sequence (P21728 whole entry): as the sequence (P21728 whole entry) above

[7] = molecular target: DA D2 receptors (Homo sapiens, UniProt P14416); conditions: as described in PCT/DK04/000546; cited from earlier work
DA D2 receptors, sequence (P14416 whole entry): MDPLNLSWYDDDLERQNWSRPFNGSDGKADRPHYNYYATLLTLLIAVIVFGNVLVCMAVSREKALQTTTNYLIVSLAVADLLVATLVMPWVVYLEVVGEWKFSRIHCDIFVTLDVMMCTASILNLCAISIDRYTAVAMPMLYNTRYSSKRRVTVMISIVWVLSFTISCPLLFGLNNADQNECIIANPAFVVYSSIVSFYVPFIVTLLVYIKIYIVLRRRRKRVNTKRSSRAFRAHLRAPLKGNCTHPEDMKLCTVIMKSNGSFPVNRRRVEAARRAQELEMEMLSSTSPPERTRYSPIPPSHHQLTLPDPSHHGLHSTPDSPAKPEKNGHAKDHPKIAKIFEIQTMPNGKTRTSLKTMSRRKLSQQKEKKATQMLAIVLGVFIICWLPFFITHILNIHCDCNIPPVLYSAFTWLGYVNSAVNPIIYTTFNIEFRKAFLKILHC

[8] = system: pigs sensitized to haloperidol; test: dystonia in pigs sensitized to haloperidol; format: in vivo
[9] = system: alfa1 adrenoceptors; conditions: as described in PCT/DK04/000546; cited from earlier work

serotonin 5-HT2a receptors, sequence (P28223 whole entry): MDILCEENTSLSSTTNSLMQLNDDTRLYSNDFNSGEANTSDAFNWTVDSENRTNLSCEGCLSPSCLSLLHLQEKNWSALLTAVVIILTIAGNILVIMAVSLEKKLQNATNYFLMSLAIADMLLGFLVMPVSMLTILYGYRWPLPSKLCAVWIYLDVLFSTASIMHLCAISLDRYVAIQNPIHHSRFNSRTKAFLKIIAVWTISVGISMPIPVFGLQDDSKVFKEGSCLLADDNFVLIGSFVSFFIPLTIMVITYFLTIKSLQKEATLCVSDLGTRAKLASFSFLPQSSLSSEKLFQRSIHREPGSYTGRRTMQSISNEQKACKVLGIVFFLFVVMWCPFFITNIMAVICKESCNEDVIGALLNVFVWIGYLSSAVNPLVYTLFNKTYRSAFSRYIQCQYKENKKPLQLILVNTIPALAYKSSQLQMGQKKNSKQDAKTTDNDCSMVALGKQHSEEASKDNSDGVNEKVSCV
dopamine D2 receptors, sequence (P14416 whole entry): as the sequence (P14416 whole entry) above

For `CC1(C)CN([C@@H]2C[C@@H](c3ccccc3)c3ccc(Cl)cc32)CCN1` [Compound I, trans-1-((1R,3S)-6-chloro-3-phenylindan-1-yl)-3,3-dimethylpiperazine], the “functional activity at serotonin 5-HT2a receptors” value [1] is listed as “antagonist”, the “functional activity at dopamine D2 receptors” value [2] is listed as “antagonist” and the “functional activity at dopamine D1 receptors” value [3] is listed as “antagonist”. For the same compound, the “inhibition of CYP2D6” value [4] was “relatively weak inhibitor”, the “effect on the QT interval” value [5] was “relatively low effect” and the “affinity for dopamine (DA) D1 receptors” value [6] was “high affinity”. For the same compound, the “affinity for DA D2 receptors” value [7] was “high affinity”, the “induction of dystonia (EPS liability)” value [8] was “did not induce dystonia” and the “affinity for alfa1 adrenoceptors” value [9] was “high affinity”.
